Reference: ChEMBL document CHEMBL2040787, “Synthesis and carbonic anhydrase inhibitory properties of novel bromophenols and their derivatives including natural products: vidalol B” (Eur J Med Chem, 2012)

Experiments:
Carbonic anhydrase 4 = Carbonic anhydrase 4 (Homo sapiens, UniProt P22748); test: Inhibition of human CA4 using 4NPA as substrate for 3 mins by Lineweaver burk plot analysis
Carbonic anhydrase 6 = Carbonic anhydrase 6 (Homo sapiens, UniProt P23280); test: Inhibition of human CA6 using 4NPA as substrate for 3 mins by Lineweaver burk plot analysis
Carbonic anhydrase 1 = Carbonic anhydrase 1 (Homo sapiens, UniProt P00915); test: Noncompetitive inhibition of human CA1 using 4NPA as substrate for 3 mins by Lineweaver burk plot analysis
Carbonic anhydrase 2 = Carbonic anhydrase 2 (Homo sapiens, UniProt P00918); test: Inhibition of human CA2 using 4NPA as substrate for 3 mins by Lineweaver burk plot analysis

Carbonic anhydrase 4, sequence (P22748 whole entry): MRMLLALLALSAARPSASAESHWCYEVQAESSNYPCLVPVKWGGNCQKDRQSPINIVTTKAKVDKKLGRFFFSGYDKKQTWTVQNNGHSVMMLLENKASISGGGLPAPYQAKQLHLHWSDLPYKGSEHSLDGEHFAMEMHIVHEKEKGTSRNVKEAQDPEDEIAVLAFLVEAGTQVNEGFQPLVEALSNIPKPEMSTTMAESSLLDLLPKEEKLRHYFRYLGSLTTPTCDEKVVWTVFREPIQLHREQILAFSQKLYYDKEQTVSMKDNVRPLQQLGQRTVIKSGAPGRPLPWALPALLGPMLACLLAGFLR
Carbonic anhydrase 1, sequence (P00915 whole entry): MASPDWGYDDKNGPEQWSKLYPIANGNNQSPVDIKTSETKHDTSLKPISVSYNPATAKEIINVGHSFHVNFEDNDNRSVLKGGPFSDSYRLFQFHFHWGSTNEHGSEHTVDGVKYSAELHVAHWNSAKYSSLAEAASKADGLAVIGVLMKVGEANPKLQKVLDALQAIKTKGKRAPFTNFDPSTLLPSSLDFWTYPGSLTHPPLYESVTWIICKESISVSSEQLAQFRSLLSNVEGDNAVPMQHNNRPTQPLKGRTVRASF
Carbonic anhydrase 6, sequence (P23280 whole entry): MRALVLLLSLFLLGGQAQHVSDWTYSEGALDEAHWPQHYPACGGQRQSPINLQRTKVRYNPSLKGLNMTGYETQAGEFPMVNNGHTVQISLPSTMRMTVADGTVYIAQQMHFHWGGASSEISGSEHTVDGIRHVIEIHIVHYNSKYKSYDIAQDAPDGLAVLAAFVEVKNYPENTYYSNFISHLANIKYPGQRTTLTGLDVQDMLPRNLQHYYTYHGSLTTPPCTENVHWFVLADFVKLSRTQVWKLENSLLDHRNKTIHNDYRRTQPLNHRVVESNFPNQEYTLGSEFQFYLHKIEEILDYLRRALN

SMILES | Ki (Carbonic anhydrase 4) | Ki (Carbonic anhydrase 6) | Ki (Carbonic anhydrase 1) | Ki (Carbonic anhydrase 2)
COc1ccc(Cc2ccc(OC)c(OC)c2)cc1OC | 145 µM | 382 µM | 537 µM | 59.1 µM
COc1c(Br)c(Br)c(Cc2c(Br)c(Br)c(OC)c(OC)c2Br)c(Br)c1OC | 32.7 µM | 29.7 µM | 43.5 µM | 35.5 µM
Oc1ccc(Cc2ccc(O)c(O)c2)cc1O | 7.64 µM | 13.7 µM | 18.4 µM | 5.64 µM
COc1ccccc1 [ANISOLE] |  | 235 µM |  | 
O=C(O)c1ccc(O)c(O)c1 [PROTOCATECHUIC ACID] | 2.45 µM |  |  | 
COc1ccc(C(=O)O)cc1OC [VERATRIC ACID] | 6.48 µM | 24.4 µM |  | 
